According to the supplement of paper PMC11061612:

Key:
Test in all cases: combination Emax (second highest fraction inhibited in the dose matrix, 72 h); higher = more inhibition; extreme values may be limits of the assay
[1] = tested on: 697 (B-Lymphoblastic Leukemia)
Summary of the method: (§1)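 After 24 hours at 37°C and 5% CO2 in 1536-well plates, cells in DMEM/F12 or RPMI plus 10% FBS received two-drug dose matrices for 72 hours. Viability came from CellTiter-Glo 2.0 luminescence and was scaled as inhibition, anchored at 0 by vehicle wells and at 1 by blank wells. Combination Emax is taken as the second-highest inhibition in the matrix, and Bliss excess as the observed combination effect less EA + EB − EA·EB, with EA and EB the single-agent effects.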

[2] = tested on: C3A (Hepatocellular Carcinoma)
Summary of the method: as §1

[3] = tested on: CAL-78 (Chondrosarcoma)
Summary of the method: as §1

[4] = tested on: CFPAC-1 (Pancreatic Carcinoma)
Summary of the method: as §1

[5] = tested on: EM-2 (Chronic Myelogenous Leukemia)
Summary of the method: as §1

[6] = tested on: HCC2157 (Breast Carcinoma)
Summary of the method: as §1

[7] = tested on: IGR-1 (Melanoma)
Summary of the method: as §1

[8] = tested on: IHH-4 (Thyroid Gland Carcinoma)
Summary of the method: as §1

[9] = tested on: J82 (Bladder Carcinoma)
Summary of the method: as §1

[10] = tested on: JiyoyeP-2003 (Burkitt's Lymphoma)
Summary of the method: as §1

[11] = tested on: KARPAS-620 (Plasma Cell Myeloma)
Summary of the method: as §1

[12] = tested on: KATOIII (Gastric Carcinoma)
Summary of the method: as §1

[13] = tested on: NCI-H1694 (Small Cell Lung Carcinoma)
Summary of the method: as §1

[14] = tested on: RH-1 (Ewing's Sarcoma)
Summary of the method: as §1

[15] = tested on: SK-N-FI (Neuroblastoma)
Summary of the method: as §1

[16] = tested on: SN12C (Kidney Carcinoma)
Summary of the method: as §1

[17] = tested on: SNU-C5 (Colorectal Carcinoma)
Summary of the method: as §1

[18] = tested on: SW756 (Cervical Carcinoma)
Summary of the method: as §1

[19] = tested on: TGBC24TKB (Biliary Tract Carcinoma)
Summary of the method: as §1

[20] = tested on: U-266 (Plasma Cell Myeloma)
Summary of the method: as §1

| SMILES | combination Emax [1] | combination Emax [2] | combination Emax [3] | combination Emax [4] | combination Emax [5] | combination Emax [6] | combination Emax [7] | combination Emax [8] | combination Emax [9] | combination Emax [10] | combination Emax [11] | combination Emax [12] | combination Emax [13] | combination Emax [14] | combination Emax [15] | combination Emax [16] | combination Emax [17] | combination Emax [18] | combination Emax [19] | combination Emax [20] |
| --- | --- | --- | --- | --- | --- | --- | --- | --- | --- | --- | --- | --- | --- | --- | --- | --- | --- | --- | --- | --- |
| CN(C)CCCOc1ccc(-c2ccc3ncc4c(c3c2)n(C2CCOCC2)c(=O)n4C)cn1 [AZD0156] + CCN(CCO)CCCOc1ccc2c(Nc3cc(CC(=O)Nc4cccc(F)c4)[nH]n3)ncnc2c1 [AZD2811] (first compound max 1 µM, 7x7, partner max 1 µM) | 1 | 0.129 | 0.193 | 0.0885 | 0.852 | 0.824 | 0.135 | 0.322 | 0.283 | 0.408 | 0.693 | 0.0129 | 0.278 | 0.956 | 0.114 | 0.12 | 0.224 | 0.125 | 0.505 | 0.299 |
| Cc1cc2ncnn2cc1Nc1ncc2c(n1)n(C1CCOCC1)c(=O)n2C [AZD7648] + C[C@@H]1COCCN1C2=NC(=NC(=C2)C3(CC3)[S@](=N)(=O)C)C4=C5C=CNC5=NC=C4 [AZD6738] (first compound max 10 µM, 7x7, partner max 10 µM) | 1 | 0.548 | 0.469 | 0.356 | 0.957 | 0.842 | 0.348 | 0.756 | 0.31 | 0.929 | 0.539 | 0.407 | 0.659 | 0.894 | 0.71 | 0.313 | 0.751 | 0.401 | 0.786 | 0.508 |
| Cc1c2c(nn1C)CSCc1cc(n(C)n1)CSc1cc(c3ccccc3c1)OCCCc1c(C(=O)O)n(C)c3c-2c(Cl)ccc13 [AZD5991] + CN(C)CCCOc1ccc(-c2ccc3ncc4c(c3c2)n(C2CCOCC2)c(=O)n4C)cn1 [AZD0156] (first compound max 1 µM, 7x7, partner max 1 µM) | 1 | 0.198 | 0.786 | 0.209 | 0.394 | 0.98 | 0.327 | 0.265 | 0.22 | 0.756 | 1 | 0.182 | 0.98 | 0.666 | 0.443 | 0.222 | 0.196 | 0.203 | 0.165 | 0.919 |
| C[C@@H]1COCCN1c1cc(C2([S@](C)(=N)=O)CC2)nc(-c2ccnc3[nH]ccc23)n1 [AZD6738] + O=C(c1cc(Cc2n[nH]c(=O)c3ccccc23)ccc1F)N1CCN(C(=O)C2CC2)CC1 [Olaparib] (first compound max 10 µM, 7x7, partner max 10 µM) | 1 | 0.429 | 0.616 |  | 0.984 | 0.907 | 0.452 | 0.773 | 0.344 | 0.944 | 0.544 | 0.341 | 0.734 | 0.965 | 0.701 | 0.249 | 0.696 | 0.228 | 0.693 | 0.584 |
| CN(CCO)CC[C@H](CSc1ccccc1)Nc1ccc(S(=O)(=O)NC(=O)c2ccc(N3CCC([C@@H](O)c4ccccc4-c4ccc(Cl)cc4)CC3)cc2)cc1S(=O)(=O)C(F)(F)F [AZD4320] + CN(C)CCCOc1ccc(-c2ccc3ncc4c(c3c2)n(C2CCOCC2)c(=O)n4C)cn1 [AZD0156] (first compound max 1 µM, 7x7, partner max 1 µM) | 1 | 0.248 |  | 0.115 | 0.968 | 0.936 | 0.342 | 0.224 | 0.122 | 0.645 | 1 | 0.0663 | 0.718 | 0.359 | 0.17 | 0.169 | 0.225 | 0.133 | 0.598 | 0.506 |
| CC(=O)c1c(C)c2cnc(Nc3ccc(N4CCNCC4)cn3)nc2n(C2CCCC2)c1=O [Palbociclib] + CN(CC[C@H](CSC1=CC=CC=C1)NC2=C(C=C(C=C2)S(=O)(=O)NC(=O)C3=CC=C(C=C3)N4CCC(CC4)[C@H](C5=CC=CC=C5C6=CC=C(C=C6)Cl)O)S(=O)(=O)C(F)(F)F)CCO [AZD4320] (first compound max 10 µM, 7x7, partner max 1 µM) | 1 | 0.639 | 0.709 | 0.419 | 0.95 | 0.994 | 0.976 |  | 0.22 | 0.795 |  |  | 0.941 | 0.684 |  |  | 0.388 | 0.293 | 0.736 |  |
